Measured values published in PMC11990301, “Lipidated DAPEG Polymers as a Non-Toxic Transfection Agent—Influence of Fatty Acid Side Chain on Transfection Efficacy” (Molecules, 2025).

Columns and labels:
[1] = system: spheroids of HEK-293T cells; test: Viability in 3D model, CellTiter Glo 3D (ATP); assay type: cell-based; details: HEK-293T spheroids, 24 h incubation, tested 0, 1, 2, 5, 10, 20 and 50 µM, CellTiter Glo 3D luminescence; n = 3
Method: (§1) The HEK-293T cell line was cultured using both 2D and 3D techniques. The non-adherent method of forming spheroids was used. Cells (750 cells per well) were seeded in a 96-well U-shaped plate BIOFLOAT (Sarstedt, Nümbrecht, Germany). The HEK-293T cells were cultured at 37 °C in 5% CO2 in Dulbecco’s modified Eagle medium (DMEM; high glucose) supplemented with 10% fetal bovine serum (FBS) and 1% penicillin–streptomycin solution containing 100 units of penicillin and 100 µg/mL of streptomycin. After three days of culturing, the spheroids were formed and ready for further experiments.
After culturing for 72 h, spheroids of HEK-293T cells were incubated with increasing amounts of the appropriate compounds (0, 1, 2, 5, 10, 20, and 50 µM) in the medium described above at 37 °C with 5% CO2. After 24 h, the plate was incubated at room temperature (RT) for 30 min, followed by the addition of 100 μL of CellTiter Glo 3D Cell Viability Assay reagent (Promega, Fitchburg, WI, USA). The plate was then covered from light and shaken for 30 min. Next, the contents of each well were transferred to a white flat bottom plate (Nunc A/S, Thermo Fisher, Odense, Denmark) and luminescence was read at 560 nm using the CLARIOstar (BMG Labtech, Ortenberg, Germany).

[2] = Dynamic light scattering (DLS) particle size of compounds and compound-pmaxGFP complexes; assay type: physicochemical; details: 25 °C, n = 3; for hydrodynamic diameters, pMAXGFP (-) / PDI (polydispersity index), pMAXGFP (-): compound alone without plasmid, in water; for hydrodynamic diameters, pMAXGFP (-): 2.5 mg/mL as printed, 10 s runs, Litesizer DIA 500, mean ± SD; for PDI (polydispersity index), pMAXGFP (-) / PDI (polydispersity index), pMAXGFP (+) / hydrodynamic diameters, pMAXGFP (+): mean ± SD; for PDI (polydispersity index), pMAXGFP (+) / hydrodynamic diameters, pMAXGFP (+): compound-DNA plasmid complex, N/P 1.5/1, in water
Method: Dynamic light scattering (DLS) measurements were performed using the Litesizer DIA 500 (Anton Par, Ostfildern-Scharnhausen, Germany). The concentration of the compounds in water was 2.5 mg/mL, with the inclusion of a DNA plasmid to maintain a charge-to-ratio of 1.5/1 N/P. For system 1:1.5, the concentration of each compound was 0.61 µM; for 3:1–1.21 µM; for 9:1–3.64 µM. The DNA plasmid concentration remains constant and equal at 0.46 nM. The particle size series mode was used in a cuvette with a volume of […]. Each run was recorded at 25 °C for 10 s.

[3] = system: HEK-293T cell line (spheroids); test: Transfection efficacy of GFP plasmid (pmaxGFP) in 3D model; assay type: cell-based; details: HEK-293T spheroids
Method: as §1
Cells were cultured for 72 h under the conditions described above. Mixtures of the selected compounds and pmaxGFP plasmid in N/P ratios (charge peptidomimetic/charge pmaxGFP) of 1.5, 3:1, and 9:1 were incubated for 30 min and used immediately. An appropriate control with plasmid was employed. To each well with spheroids, 10 µL of the mixture described above was added in triplicate up to 90 µL of the full medium. The plate was then incubated at 37 °C with 5% CO2 for 5 h, washed (3 × medium), and cultured for another 72 h. After this process, the cells were inspected under a fluorescent microscope (Olympus IX51 fluorescence microscope (Olympus, Tokyo, Japan)). The molar concentration of particular components was equal to, for system 1:1.5, the concentration of each compound at 0.61 µM; for 3:1–1.21 µM; for 9:1–3.64 µM. The DNA plasmid concentration remains constant and equal at 0.46 nM.

[4] = Complex stability assessment by UV spectra (Nanodrop); assay type: physicochemical; details: Nanodrop UV-Vis, time points 0, 0.5, 1, 2.5 and 5 h, transfection buffer and concentrations (Figure S2)
Method: The analysis of all obtained complexes was conducted using a Nanodrop 2000c UV-Vis spectrophotometer (Thermo Scientific, Waltham, MA, USA) at designated time points from 0 to 5 h (0, 0.5, 1, 2.5, and 5). The concentration of the individual components (DNA and the compound) was used as a reference. The concentration of the complexes remained constant in relation to the transfection experiments.

Substance	concentration up to which viability is not suppressed compared to non-treated cells (3D spheroids, ATP) [1]	hydrodynamic diameters, pMAXGFP (-) [2]	PDI (polydispersity index), pMAXGFP (-) [2]	PDI (polydispersity index), pMAXGFP (+) [2]	hydrodynamic diameters, pMAXGFP (+) [2]	average fluorescence of spheroids (GFP production), N/P ratio 1.5:1 ([3]; compound 0.61 µM, plasmid 0.46 nM, 5 h incubation then 72 h culture, mean, n = 3) [arbitrary units]	average fluorescence of spheroids (GFP production), N/P ratio 3:1 ([3]; compound 1.21 µM, plasmid 0.46 nM, 5 h incubation then 72 h culture, mean, n = 3)	transfection efficacy ranking (GFP fluorescence), N/P ratio 9:1 ([3]; compound 3.64 µM, plasmid 0.46 nM, 5 h incubation then 72 h culture)	stability of compound and compound-DNA complex: change of UV spectra over time [4]	transfection efficacy ranking (GFP fluorescence), N/P ratio 1.5:1 ([3]; compound 0.61 µM, plasmid 0.46 nM, 5 h incubation then 72 h culture)	transfection efficacy ranking across all N/P series (1.5:1, 3:1, 9:1) ([3]; pmaxGFP)
C2H3O-O2Oc-[Dap(GO2)]8-O2Oc-NH2 [compound 1]	up to 5 µM	309,0 ± 56,2 nm	25,5 ± 2,9%	30,1 ± 1,7%	5580,7 ± 321,2 nm	~150	around 200 arbitrary units	superior fluorescence			
C4H7O-O2Oc-[Dap(GO2)]8-O2Oc-NH2 [compound 2]		337,2 ± 28,6 nm	27,8 ± 1,5%	30,6 ± 2,5%	4761,0 ± 190,1 nm						
C6H11O-O2Oc-[Dap(GO2)]8-O2Oc-NH2 [compound 3]		599,5 ± 80,8 nm	23,5 ± 2,4%	30,7 ± 2,6%	3006,0 ± 133,9 nm						
C8H15O-O2Oc-[Dap(GO2)]8-O2Oc-NH2 [compound 4]		508,9 ± 62,2 nm	24,4 ± 2,3%	29,4 ± 2,5%	3446,7 ± 208,5 nm				do not show significant changes over time		
C10H19O-O2Oc-[Dap(GO2)]8-O2Oc-NH2 [compound 5]		240,6 ± 36,9 nm	24,9 ± 2,2%	34,3 ± 4,2%	4605,7 ± 90,9 nm						
C12H23O-O2Oc-[Dap(GO2)]8-O2Oc-NH2 [compound 6]		337,4 ± 17,7 nm	23,2 ± 2,8%	24,2 ± 1,6%	283,7 ± 5,9 nm						
C14H27O-O2Oc-[Dap(GO2)]8-O2Oc-NH2 [compound 7]		373,5 ± 59,7 nm	25,6 ± 3,2%	21,2 ± 2,4%	135,0 ± 3,2 nm						
C16H31O-O2Oc-[Dap(GO2)]8-O2Oc-NH2 [compound 8]		517,6 ± 63,3 nm	24,8 ± 1,9%	26,3 ± 2,9%	308,7 ± 22,7 nm					greatest fluorescence	
H-O2Oc-[Dap(GO2)]8-O2Oc-NH2 [1a, reference compound]		329,1 ± 39,3 nm	18,3 ± 1,5%	29,9 ± 2,8%	2235,3 ± 48,0 nm						lowest in each series
